Experiment: gradient 5% acetonitrile 3 min, to 50% in 2 min, to 85% in 15 min, held 3 min, 100 µL/min
Settings: column: Zorbax Extend-C18 2.1 x 50 mm; eluents: water / acetonitrile, 0.1% formic acid
Outline: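 Retention times come from adduct peaks that were picked computationally and then checked by hand. The standards, pure and pooled in mixtures of ~100 molecules, were run on a Zorbax Extend-C18 column (2.1 × 50 mm, 1.8 μm) at 100 μL/min with water and acetonitrile, each with 0.1% formic acid. Detection was by quadrupole time-of-flight mass spectrometry in positive and negative ionization mode, with a dead volume of 40 μL and a dwell volume of 900 μL.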

Row | SMILES | RP-LC retention time [s]
1 | O=C1N(c2cccc(F)c2)c2ncccc2S(=O)(=O)N1Cc1cccc(F)c1 | 1030
2 | Cc1[nH]nc(-c2c(C)sc(C)c2S(=O)(=O)Nc2cccc(Br)c2)c1C | 1130
3 | COc1cccc(OC)c1C(=O)NCCNC(=O)c1ccc(NC(=O)C2CC2)cc1 | 608
4 | O=c1cc(-c2ccccc2)nc2n1CCN2Cc1ccccn1 | 658
5 | CCc1noc(NC(C)=O)c1-c1ccc(OC)c(S(=O)(=O)Nc2ccc(C)cc2)c1 | 784
6 | CCOc1ccc(C(=O)N2CCC3(C2)C(=O)Nc2ccc(OC)cc23)cc1 (stereo not given) | 737
7 | O=C(CCc1c(-c2ccccc2)nc2ccccn12)Nc1ccc(F)cc1F | 666
8 | Cc1ccc(NC(=O)CSc2nc(N3CCCCC3)nc3ccccc23)c(Cl)c1 | 901
9 | Cc1cc(N2CCOCC2)nc(N2CCN(C(=O)C3CCCCC3)CC2)n1 | 625
10 | COc1ccc(Cc2nnc3sc(COc4ccc(OC)cc4)nn23)cc1 | 902
11 | COc1cccc(-c2nnc(NC(=O)c3ccccc3Br)o2)c1 | 734
12 | O=C(O)C1CCCN(c2cc(-n3ccnc3)ncn2)C1 (stereo not given) | 537
13 | CCn1c(=O)c2cc(C(N)=O)nn2c2ccccc21 | 653
14 | O=C(NC1CCCC1)C1CCCN(c2ccc(=O)n(-c3ccc(F)cc3)n2)C1 (stereo not given) | 763
15 | CCCc1noc(-c2cccnc2N2CCCN(Cc3ccccc3C)CC2)n1 | 740
16 | COC(=O)c1cccc(Nc2ncccc2S(N)(=O)=O)c1 | 777
17 | CCCCC(=O)Nc1ccc2nc(N3CCN(C)CC3)cc(C(=O)O)c2c1 | 571
18 | O=C(CN1CCN(c2ccccn2)CC1)Nc1nccs1 | 555
19 | CC(NC(=O)c1ccc2c(c1)OCO2)C(=O)Nc1nc2ccccc2[nH]1 (stereo not given) | 623
20 | Cc1ccc(C)c(NC(=O)Cn2c(=O)n(-c3ccc(F)cc3)c3ncccc32)c1 | 880
21 | CC(C)c1ccc(-c2ccnc3c(C(=O)N4CCN(c5ncccn5)CC4)cnn23)cc1 | 963
22 | COc1cc(C(=O)Nc2nc(-c3ccc(C)cc3)c(C)s2)c(Br)c(OC)c1OC | 1190
23 | CCn1ccc2oc(C)c(C(=O)NCc3cccc(F)c3)c2c1=O | 947

Row | SMILES | RP-LC retention time [s]
24 | O=C(NC1CCCCCC1)C1CCN(c2cncnc2N2CCCCC2)CC1 | 712
25 | COCC(=O)N1CCC2(CC1)NC(=O)N(CCc1ccccc1)C2=O | 631
26 | Cc1cc2ccccc2n1-c1ccc(C(N)=O)s1 | 842
27 | CCN(CC)C(=O)c1ccc(-c2nc3cc(NS(=O)(=O)c4ccc(F)cc4F)ccc3n2C)cc1 | 710
28 | CCCN1CCN(CCNC(=O)C2CCCN(c3ncc(-c4ccc(F)cc4)cn3)C2)CC1 (stereo not given) | 641
29 | Cn1cnc2ccc(-c3noc(CCc4c[nH]c5ccccc45)n3)cc21 | 731
30 | O=C(NCc1cccc(Br)c1)C1CCCN(C(=O)Cc2cccc3ccccc23)C1 (stereo not given) | 978
31 | Cc1ccccc1CNC(=O)CN1C(=O)CSc2cccn2-c2ccccc21 | 916
32 | O=C(Nc1ccc(F)c(Cl)c1)Nc1nccn(-c2ccc3c(c2)CCC3)c1=O | 1180
33 | COC(=O)C1=C(CN2CCN(C)CC2)NC(=O)NC1c1ccc(Cl)cc1 (stereo not given) | 604
34 | CCc1nnc(-c2ccc3ccn(CC(=O)Nc4ccc(OC)cc4)c3c2)o1 | 763
35 | Cc1cc(C)cc(C(=O)N2CCCC(C(=O)NCCN3CCOCC3)C2)c1 (stereo not given) | 619
36 | COc1ccc(OC)c(-c2nnc(SCC(=O)Nc3nccs3)o2)c1 | 693
37 | Cc1nc2cc3c(cc2n1CC(=O)NC1CCCc2ccccc21)OCCO3 (stereo not given) | 682
38 | CCn1c(CN(C)C(=O)Nc2ccc3c(c2)OCCO3)nc2cc(C(=O)N(C)C)ccc21 | 611
39 | O=C(CSc1ccc(N2CCOCC2)nn1)Nc1ccccc1Cl | 730
40 | Cc1ccsc1C(=O)Nc1ccccc1Sc1c(C)c(C)nc2nc(-c3ccccc3)nn12 | 1120
41 | CC(=O)N1CCCSc2ccc(S(=O)(=O)N3CCN(c4cccc(C)c4)C(C)C3)cc21 (stereo not given) | 982
42 | O=C1NCCCn2cc(S(=O)(=O)N3CCN(c4ccc(F)cc4)CC3)cc21 | 730
43 | Cc1ccc(S(=O)(=O)N(C)CC2CCOCC2)cc1F | 850
44 | CCn1c(=O)c(C(=O)NC2CCN(Cc3ccccc3)CC2)nc2cccnc21 | 606
45 | O=C(NC1CC1)c1c2c(nc3ccccc13)CCC2 | 566
46 | Cc1cc2c(cc1S(=O)(=O)N1CCN(c3ccccn3)CC1)OCCN2C | 668

Row | SMILES | RP-LC retention time [s]
47 | CON(C)C(=O)N1N=C(c2cc(F)ccc2F)S[C@@]1(CCCN)c1ccccc1 | 792
48 | O=C1COc2cc(S(=O)(=O)N3CCCC3C(=O)NCCN3CCCCCC3)c(Cl)cc2N1 (stereo not given) | 587
49 | CC(C)N1CCn2cc(S(=O)(=O)Nc3ccc(C#N)cc3)cc2C1=O | 719
50 | CCCc1c(C(=O)O)nnn1-c1ccc(Cl)cc1 | 778
51 | CCOCCCNCc1ccc(-c2ccc(Cl)cc2)o1 | 687
52 | CCCNC(=O)N(C1CCOCC1)C1CCN(C(=O)Nc2cccc(C)c2C)CC1 | 732
53 | Cc1ccc(NC(=O)N(C)Cc2ccoc2)cc1 | 647
54 | CCOc1cc(C(=O)NC2CCN(c3cc(-c4cccs4)[nH]n3)C2)cc(OCC)c1OCC (stereo not given) | 839
55 | COc1ccccc1-c1noc(Cn2ncn3nc(-c4ccc(Br)cc4)cc3c2=O)n1 | 1110
56 | COc1ccc(N2CC(c3nc(-c4ccccc4F)no3)CC2=O)cc1OC (stereo not given) | 808
57 | O=C(Cc1nnc(-c2ccc3ncccc3c2)o1)Nc1ccc(C(F)(F)F)cc1 | 827
58 | CCOC(=O)N1CCC(c2nnc(Cc3ccc(OC)cc3)s2)CC1 | 788
59 | CN1CCCN(C(=O)Nc2ccc3c(c2)OCCO3)c2ccccc21 | 649
60 | CS(=O)(=O)N1CC[C@H]2CN(Cc3cn[nH]c3-c3ccccc3)C[C@@]2(CF)C1 | 592
61 | CCOC(=O)c1c(C)[nH]c(C)c1S(=O)(=O)N1CCC(C(=O)NCCN2CCCCCC2)CC1 | 592
62 | Cc1nc(C(=O)N2CCSCC2)c(C)o1 | 620
63 | Cc1ccc(CSc2nnc(-c3ccccc3Cl)o2)cc1 | 1190
64 | Cc1csc(-c2ccc(N3CCN(C(=O)Cc4cccc(F)c4)CC3)nc2)n1 | 849
65 | Cc1c(C)n(-c2ccc(Cl)cc2)c2ncn(CC(=O)NC3CCCCC3)c(=O)c12 | 644
66 | CC(C)NC(=O)c1ccc(-c2ccsc2)nc1 | 736
67 | O=C(CCSCc1cnn(-c2ccccc2)c1-n1cccc1)N1CCN(c2ccccn2)CC1 | 707
68 | CCCNC(=O)C1CCN(c2ccc(SCC(=O)Nc3ccccc3Br)nn2)CC1 | 670
69 | CCOc1ccccc1NC(=O)Cn1c(=O)n(-c2cccc(C)c2)c(=O)c2c1cc(C)n2C | 943

Row | SMILES | RP-LC retention time [s]
70 | O=C1CCCCC(CNC(=O)c2cnccn2)N1 (stereo not given) | 577
71 | O=C(C1CC1)N1CCc2sc(S(=O)(=O)Nc3cc(Cl)ccc3F)cc2C1 | 868
72 | COc1cc(NC(=O)C2CCN(S(=O)(=O)c3cn(C(C)C)cn3)CC2)cc(OC)c1 | 751
73 | CCOc1ccc(-c2ccnc3c(C(=O)Nc4cc(C)cc(C)c4)cnn23)cc1 | 1320
74 | CCn1ccc2sc(C)c(C(=O)NCc3cccc(C)c3)c2c1=O | 850
75 | COC(=O)C1=CN(c2ccc(OC)c(Cl)c2)c2cc(F)ccc2S1(=O)=O | 914
76 | CCCC(=O)Nc1ccc2c(c1)CN(C(=O)c1cccc(Cl)c1)C(C(=O)N(C)C)C2 (stereo not given) | 759
77 | COC(=O)c1ccc2c(=O)n(-c3ccccc3)c(N3CCC(C)CC3)nc2c1 | 1210
78 | CC(C)c1ccc(-c2noc(N3CCC(C(=O)N4CCN(C5CCCCC5)CC4)CC3)n2)cc1 | 814
79 | CCC(=O)Nc1ccc(-n2cnc(C(=O)N3CC(C)CC(C)C3)c2)nc1 (stereo not given) | 772
80 | Cc1cc(C)c(S(=O)(=O)N2CCn3c(nn(CC4CC4)c3=O)C2)c(C)c1 | 870
81 | CC(=O)Nc1cccc(C(=O)NCCc2c[nH]c3ccc(Cl)cc23)c1 | 736
82 | Cc1nc(N2CCN(c3ccccn3)CC2)c2c(C)c(C(=O)Nc3cc(F)ccc3C)sc2n1 | 733
83 | CCn1cc(-c2nc(C(=O)NCc3cc(F)cc(F)c3)cs2)c2cccnc21 | 1030
84 | Cc1ccc2c(NCc3ccc(F)cc3)c(-c3nc(C(C)C)no3)cnc2n1 | 798
85 | COc1ccccc1/C=C/c1nc(C#N)c(NCCN(C)C)o1 | 648
86 | Cc1ccc(C(=O)NCCc2nc3cccnc3n2C(C)C)c(C)c1 | 695
87 | Cc1ccc(S(=O)(=O)NCc2c(-c3ccccc3)nc3sc(C)nn23)c(C)c1 | 922
88 | CCn1ccc(C(=O)N2CC[C@H]3N(CCOC)S(=O)(=O)CC[C@]3(C(=O)N3CCOCC3)C2)n1 | 622
89 | CS(=O)(=O)N1CCC(C2CCN(Cc3ccc(C#N)cc3)C2)CC1 (stereo not given) | 597
90 | Cc1ccc(NC(=O)Cn2nc(N3CCOCC3)c3ccccc3c2=O)cc1Cl | 780

Reference: the METLIN SMRT retention time set (Domingo-Almenara et al. 2019)
